Source: the METLIN SMRT retention time set (Domingo-Almenara et al. 2019)

Assay: gradient 5% acetonitrile 3 min, to 50% in 2 min, to 85% in 15 min, held 3 min, 100 µL/min
Settings: column: Zorbax Extend-C18 2.1 x 50 mm; eluents: water / acetonitrile, 0.1% formic acid
Summary of the method: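 A Zorbax Extend-C18 column (2.1 × 50 mm, 1.8 μm) run at 100 μL/min with water and acetonitrile, both containing 0.1% formic acid, separated mixtures of ~100 pure standards. The HPLC was coupled to a quadrupole time-of-flight mass spectrometer operated in positive and negative ionization mode, with dead and dwell volumes of 40 μL and 900 μL. Each retention time was taken from a computationally picked adduct peak that was then manually inspected.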

Structure (SMILES) | RP-LC retention time [s]
O=C(C1CCN(c2ccc(Cl)cc2)C1=O)N1CCN(c2ccccn2)CC1 (stereo not drawn) | 634
CCN(CC)CCNC(=O)C1CCCN(c2ccc(Sc3ccc(Br)cc3)nn2)C1 (stereo not drawn) | 664
Cc1cc(C(=O)N2CC(c3nc(Cc4ccccc4)no3)C2)c(C)o1 | 836
CCOc1ccccc1-c1nc(Cc2noc(-c3cccnc3)n2)c(C)o1 | 894
COc1ccc(C)cc1Nc1nc(N)nc(CN2CCN(c3ccccn3)CC2)n1 | 606
CCn1nccc1C(=O)N1CCCC1c1ccc(F)cc1 (stereo not drawn) | 785
COc1ccc(-c2noc(CN3N=NC4C(=O)N(c5cccc(Cl)c5)C(=O)C43)n2)c(OC)c1 (stereo not drawn) | 912
O=C(NCCc1ccc(Cl)cc1)C1CCCN(c2ncnc3c2nc2n3CCCCC2)C1 (stereo not drawn) | 838
Cc1cc(Nc2nc(C(=O)NCCN3CCOCC3)cc3occc23)ccc1Br | 621
COc1ccccc1C(=O)N1CCN(S(=O)(=O)c2cc3c4c(c2)CCC(=O)N4CCC3)CC1 | 771
O=C(Nc1ccc(-n2cnnn2)cc1)c1csc(Nc2ccccc2)n1 | 777
O=C(c1ccc(-c2cccs2)nc1)N1CCCCCC1 | 878
Cc1sc(-c2nc(-c3ccc(F)cc3)no2)cc1S(=O)(=O)N1CCN(c2ncccn2)CC1 | 1240
O=C(NCc1csc(C2CCCN(C(=O)c3ccccc3)C2)n1)C1CC1 (stereo not drawn) | 693
Cc1ccc(-c2cc(C(=O)N3CCOCC3)nn2C2CCS(=O)(=O)C2)cc1C (stereo not drawn) | 780
CC(=O)N[C@@H]1CN(C(=O)c2ccc3ncccc3c2)C[C@H]1CO | 536
CC(NS(=O)(=O)c1ccc(Cl)c(-c2nnc(-c3ccccc3)o2)c1)C(=O)O (stereo not drawn) | 819
Cc1ccc(CNC(=O)c2cccc(-c3cnc(N4CCCC4)nc3)c2)o1 | 817
NC(=O)c1cc2c(s1)N(CC1CC1)CCCC2 | 827
COc1cc(OC)cc(C(=O)N2CCC3(CC2)NC(=O)c2ccc(F)cc2N3C)c1 | 734
Cn1c(=O)n(CCN2CCCCC2)c(=O)c2c1nc1n2CCCN1c1ccc(Cl)cc1 | 668
CC1=C(C(=O)Nc2cccc(C(=O)N3CCN(c4ccccn4)CC3)c2)SCCO1 | 612

Structure (SMILES) | RP-LC retention time [s]
Cc1ccc(-c2noc(Cn3ccn(-c4ccccc4C)c(=O)c3=O)n2)cc1 | 680
N#Cc1ccccc1NC(=O)COc1ccc(Cl)cc1Cl | 719
Cc1ccc(-c2ncccc2CNS(=O)(=O)c2cccc(F)c2)cc1 | 713
COc1cccc2c1OC1(C)CC2C(S(=O)(=O)c2ccc(C(C)(C)C)cc2)C(=O)N1 (stereo not drawn) | 1010
Cc1ccc(N2C(=O)C3N=NN(Cc4nc(-c5ccccc5Br)no4)C3C2=O)cc1F (stereo not drawn) | 1010
CCc1ccc(NC(=O)N2CCC3(CC2)NC(=O)c2cc(C)ccc2N3C)cc1 | 874
COc1ccc(-c2nc3cnccn3c2Nc2ccccc2C)cc1OC | 793
COC(=O)c1cccc(C(=O)Nc2cc(C)cc(C)c2)n1 | 931
COc1ccc(NC(=O)CCc2c(C)nn(-c3cc(N(C)C)ncn3)c2C)cc1OC | 697
Cc1nc(C)c(-c2nnc(NC(=O)c3cc(=O)c4ccccc4o3)o2)s1 | 653
COc1ccc(OC)c2c(C)cc(N3CCN(S(=O)(=O)c4ccc(C)cc4)CC3)nc12 | 798
Cc1[nH]c(=O)nc(N/N=C/c2ccc(Cl)cc2)c1C(=O)Nc1ccc(Cl)cc1 | 1020
COc1ccc2[nH]cc(CCN3CC(C(=O)Nc4ccc(Br)cc4)CC3=O)c2c1 (stereo not drawn) | 844
CNC(=O)c1cn(-c2ccc(SCC(=O)Nc3ccc4c(c3)OCCO4)nn2)cn1 | 645
CNC(=O)N1CC2(CCCCC2)CC1COCc1ccccc1 (stereo not drawn) | 1060
Cc1oc(-c2[nH]ncc2C(=O)N(C)C)cc1S(=O)(=O)Nc1ccc(Cl)cc1 | 703
CCn1c(C(=O)N2CCN(c3ccc(F)cc3)CC2)cc2c(-c3cccs3)nn(-c3ccccc3)c21 | 1220
Cc1cc(C)n(CC(=O)N2CCCCCCNC(=O)[C@@H]3CCCC[C@@H]32)n1 | 715
CCNC(=O)C1CCCN(c2nc3ncn(CC(=O)Nc4ccccc4Cl)c(=O)c3s2)C1 (stereo not drawn) | 664
CCOc1ccc(S(=O)(=O)N2CCC(c3noc(-c4ccccc4C)n3)CC2)cc1 | 1180
COc1cc(CNC(=O)c2cccc3c2CCN3C(=O)C2CC2)cc(OC)c1 | 809
CCc1noc(-c2ccc(-n3cnc(C(=O)NCC(C)C)c3)nc2)n1 | 814

Structure (SMILES) | RP-LC retention time [s]
CCC(CC)C(=O)Nc1nc(-c2ccc3c(c2)NC(=O)CO3)c(C)s1 | 910
Cc1ccn2cc(-c3cccc(S(=O)(=O)N4CC(C)CC(C)C4)c3)nc2c1 (stereo not drawn) | 784
COC(=O)c1cc(C)nc2c1c(=O)n(Cc1cccc(OC)c1)c(=O)n2C | 970
Cc1cc(N2CCCC2)n2nc(CN3CCCC(C)C3)nc2n1 (stereo not drawn) | 571
Cc1ccc(CCC(=O)Nc2nc(-c3ccc4c(c3)N(C)C(=O)C(C)O4)cs2)cc1 (stereo not drawn) | 1070
CC(=O)Nc1ccc(-c2nc3ccc(C)cc3s2)cc1 | 851
O=C(NCC#CCN1CCc2ccccc2C1)c1c(F)cccc1Cl | 565
CC1Oc2ccc(-c3csc(NC(=O)c4cccc(Br)c4)n3)cc2N(C)C1=O (stereo not drawn) | 960
COC(=O)C1=CN(c2cccc(Br)c2)c2ccc(F)cc2S1(=O)=O | 913
Cc1ccc(C(=O)CC2(O)C(=O)Nc3c(C)cccc32)cc1 (stereo not drawn) | 748
CC(C)Oc1ccc(CN2CCC(C)(c3noc(C4CCOCC4)n3)CC2)cc1 | 705
Cc1ccc(-c2nc(-c3ccc4c(c3)oc(=O)n4C)no2)cc1F | 609
O=C(Cc1ccsc1)N1CCc2nn(CC3CC3)c(=O)n2CC1 | 674
CCOC(=O)COc1cc(-c2ccccc2)nc2ccc(NC(=O)C3CCC3)cc12 | 780
CCn1ccc(C(=O)Nc2cccc(OCc3nnc(-c4ccccc4)o3)c2)n1 | 891
O=C(NCc1ccc(F)cc1)C1CCCN(c2ncnc3c2nc2n3CCCCC2)C1 (stereo not drawn) | 759
Nc1nc(Nc2ccc(F)cc2)nc2cccc(F)c12 | 627
Cc1ccc(-c2nc3ncccn3c2NCc2ccc(F)cc2)cc1C | 789
O=C(Cn1ccc2ccccc21)Nc1ccc2cn[nH]c2c1 | 726
COc1ccc(Cl)cc1NC(=O)Nc1ccc2c(c1)C(=O)N(C)CCO2 | 766
Cc1cccc(-c2nc(Cn3nnc(-c4nc(-c5ccccc5Br)no4)c3C)c(C)o2)c1 | 1310
COc1cc(CNS(=O)(=O)c2cccc(-c3nc(-c4ccccc4)no3)c2)cc(OC)c1OC | 1040

Structure (SMILES) | RP-LC retention time [s]
COc1cccc(C2OC(c3cccc(Cn4cccn4)c3)=NN2C(C)=O)c1OC(C)=O (stereo not drawn) | 832
Cc1cc(=O)n(CC(=O)Nc2ccccc2F)c(N)n1 | 581
COc1ccc(-c2nnc(-c3ccc(OC)c(S(=O)(=O)N(C)C)c3)o2)cc1OC | 807
Cc1ncoc1C(=O)N(C)C1CCc2nn(CC3CC3)c(=O)n2CC1 (stereo not drawn) | 594
Cc1cc(C(=O)N2CCC(c3nc(-c4ccccc4)no3)C2)n[nH]1 (stereo not drawn) | 727
COc1nc2ccccc2nc1N1CCCC(C(=O)Nc2ccc(Cl)cc2)C1 (stereo not drawn) | 1240
Cc1nc(-c2ccc(N3CCN(C(=O)c4ccoc4)CC3)nc2)sc1C | 738
CNC(=O)c1cc(-c2ccc(OC)cc2)n[nH]1 | 583
O=C(CCn1nnc2cc(-c3noc(COc4ccccc4)n3)ccc21)N1CCOCC1 | 826
Cc1ccc2c(c1)N(S(C)(=O)=O)CCC(C(=O)Nc1ccc(C)c(C)c1)O2 (stereo not drawn) | 912
COc1ccc(-c2nnc(-c3ccccc3Cl)o2)cc1S(=O)(=O)N(C)C | 895
COc1ccc(-c2nc3n(n2)C2(CCCCC2)[C@@H]2CCCC[C@@H]2N3C(=O)c2cccs2)cc1 | 1270
Cc1ccc(C)c(NC(=O)CN2CCC(c3nc(-c4cccs4)no3)CC2)c1 | 724
CCCn1c(CN2CCCC2)nc2cc(NC(=O)C(C)C)ccc21 | 595
CC(C)C(=O)N1CCC(N2C[C@H](O)C[C@H]2C(=O)NC2CCCCC2)CC1 | 603
O=S(=O)(NCC(c1cccnc1)N1CCN(c2ccc(F)cc2)CC1)c1cccs1 (stereo not drawn) | 618
Cc1nc(-c2noc(-c3ccccc3)n2)cn1CC(=O)NCc1ccc(F)cc1F | 838
COC(=O)CNC(=O)N1c2ccccc2CC1c1nc(C(C)C)no1 (stereo not drawn) | 834
CCc1nc2cc(-c3noc(-c4ccc(F)c(F)c4)n3)ccc2o1 | 1200
O=C(Nc1c(-c2ccc(F)cc2)nc2ccccn12)c1ccc(F)cc1 | 671
COC(=O)c1ccc(C(=O)NCCN2CCN(c3ccc(F)cc3)CC2)cc1 | 576
CCN1CCCn2cc(S(=O)(=O)N3CCN(c4ccccc4Cl)CC3)cc2C1=O | 912
